# From ChEMBL document CHEMBL3881530, “Compounds and methods for inhibiting NHE-mediated antiport in the treatment of disorders associated with fluid retention or salt overload and gastrointestinal tract disorders” (2013)
# pIC50: −log10 of the molar value.
# What was measured:
# Rattus norvegicus [1] = test: Effect on fecal water content in Sprague-Dawley rat at 3 mg/kg administered via oral gavage measured after 16 hrs relative to control; assay type: functional
# [2] = Cmax in Sprague-Dawley rat at 2.2 mg/kg administered via oral gavage measured up to 4 hrs by LC/MS/MS analysis; assay type: ADME, organism-based; parameters: dose 2.2 mg/kg, route oral; conditions: in vivo
# [3] = AUC in Sprague-Dawley rat at 2.2 mg/kg administered via oral gavage measured up to 4 hrs by LC/MS/MS analysis; assay type: ADME, organism-based; parameters: time < 4 hr, dose 2.2 mg/kg, route oral; conditions: in vivo
# [4] = target: Sodium/hydrogen exchanger 1 (Homo sapiens, UniProt P19634); test: Inhibition of NHE-1 (unknown origin)
# [5] = target: T1, Sodium/hydrogen exchanger 2 (Homo sapiens, UniProt Q9UBY0); test: Inhibition of NHE-2 (unknown origin)
# T1 sequence (Q9UBY0 whole entry): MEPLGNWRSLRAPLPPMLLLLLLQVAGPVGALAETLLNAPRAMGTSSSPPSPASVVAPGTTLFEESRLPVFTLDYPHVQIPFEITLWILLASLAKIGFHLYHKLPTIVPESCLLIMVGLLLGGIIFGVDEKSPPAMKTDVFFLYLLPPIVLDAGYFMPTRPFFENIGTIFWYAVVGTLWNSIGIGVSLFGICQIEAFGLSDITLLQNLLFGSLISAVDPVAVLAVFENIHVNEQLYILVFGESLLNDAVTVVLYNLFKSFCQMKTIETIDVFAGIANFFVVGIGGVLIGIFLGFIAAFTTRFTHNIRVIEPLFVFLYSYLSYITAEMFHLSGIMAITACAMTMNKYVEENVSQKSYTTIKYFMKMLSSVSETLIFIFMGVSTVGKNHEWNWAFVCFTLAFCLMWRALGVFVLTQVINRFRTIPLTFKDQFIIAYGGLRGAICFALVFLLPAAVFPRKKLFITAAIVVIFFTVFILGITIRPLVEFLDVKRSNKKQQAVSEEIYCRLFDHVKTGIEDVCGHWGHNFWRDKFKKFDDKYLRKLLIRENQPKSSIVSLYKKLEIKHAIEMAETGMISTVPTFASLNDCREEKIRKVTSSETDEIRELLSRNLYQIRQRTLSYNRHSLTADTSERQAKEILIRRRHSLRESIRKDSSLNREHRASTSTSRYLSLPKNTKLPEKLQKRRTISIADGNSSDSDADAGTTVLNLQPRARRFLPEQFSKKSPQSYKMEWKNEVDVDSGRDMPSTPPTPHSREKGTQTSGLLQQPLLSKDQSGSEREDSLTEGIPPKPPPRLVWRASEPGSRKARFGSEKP
# [6] = target: T2, Sodium/hydrogen exchanger 5 (Homo sapiens, UniProt Q14940); test: Inhibition of NHE-5 (unknown origin)
# T2 sequence (Q14940 whole entry): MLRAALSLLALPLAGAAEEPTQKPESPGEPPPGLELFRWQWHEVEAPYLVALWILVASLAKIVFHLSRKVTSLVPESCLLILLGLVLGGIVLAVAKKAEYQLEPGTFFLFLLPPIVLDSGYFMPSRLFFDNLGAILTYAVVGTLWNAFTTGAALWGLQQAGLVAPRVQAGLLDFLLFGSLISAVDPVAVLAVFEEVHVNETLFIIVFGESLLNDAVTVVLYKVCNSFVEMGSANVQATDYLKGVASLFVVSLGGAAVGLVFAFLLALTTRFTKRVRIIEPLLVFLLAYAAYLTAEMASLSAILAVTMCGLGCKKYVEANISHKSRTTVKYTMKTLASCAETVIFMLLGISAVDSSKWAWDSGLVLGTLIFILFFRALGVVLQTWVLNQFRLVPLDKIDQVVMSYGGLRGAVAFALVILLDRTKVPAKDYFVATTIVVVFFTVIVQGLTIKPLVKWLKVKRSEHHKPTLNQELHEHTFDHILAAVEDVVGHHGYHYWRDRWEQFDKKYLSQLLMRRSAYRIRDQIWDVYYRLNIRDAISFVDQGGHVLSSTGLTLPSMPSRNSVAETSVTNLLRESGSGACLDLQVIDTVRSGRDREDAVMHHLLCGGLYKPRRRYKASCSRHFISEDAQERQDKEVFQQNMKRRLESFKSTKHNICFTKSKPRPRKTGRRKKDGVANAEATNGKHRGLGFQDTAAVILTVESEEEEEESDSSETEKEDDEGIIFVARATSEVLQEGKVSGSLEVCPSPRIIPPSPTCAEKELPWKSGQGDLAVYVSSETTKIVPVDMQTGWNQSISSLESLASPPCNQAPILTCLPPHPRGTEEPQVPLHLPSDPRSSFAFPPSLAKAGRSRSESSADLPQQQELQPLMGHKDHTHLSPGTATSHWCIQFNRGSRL
# [7] = target: T3, Sodium/hydrogen exchanger 3 (Homo sapiens, UniProt P48764); test: Inhibition of NHE-3 (unknown origin)
# T3 sequence (P48764 whole entry): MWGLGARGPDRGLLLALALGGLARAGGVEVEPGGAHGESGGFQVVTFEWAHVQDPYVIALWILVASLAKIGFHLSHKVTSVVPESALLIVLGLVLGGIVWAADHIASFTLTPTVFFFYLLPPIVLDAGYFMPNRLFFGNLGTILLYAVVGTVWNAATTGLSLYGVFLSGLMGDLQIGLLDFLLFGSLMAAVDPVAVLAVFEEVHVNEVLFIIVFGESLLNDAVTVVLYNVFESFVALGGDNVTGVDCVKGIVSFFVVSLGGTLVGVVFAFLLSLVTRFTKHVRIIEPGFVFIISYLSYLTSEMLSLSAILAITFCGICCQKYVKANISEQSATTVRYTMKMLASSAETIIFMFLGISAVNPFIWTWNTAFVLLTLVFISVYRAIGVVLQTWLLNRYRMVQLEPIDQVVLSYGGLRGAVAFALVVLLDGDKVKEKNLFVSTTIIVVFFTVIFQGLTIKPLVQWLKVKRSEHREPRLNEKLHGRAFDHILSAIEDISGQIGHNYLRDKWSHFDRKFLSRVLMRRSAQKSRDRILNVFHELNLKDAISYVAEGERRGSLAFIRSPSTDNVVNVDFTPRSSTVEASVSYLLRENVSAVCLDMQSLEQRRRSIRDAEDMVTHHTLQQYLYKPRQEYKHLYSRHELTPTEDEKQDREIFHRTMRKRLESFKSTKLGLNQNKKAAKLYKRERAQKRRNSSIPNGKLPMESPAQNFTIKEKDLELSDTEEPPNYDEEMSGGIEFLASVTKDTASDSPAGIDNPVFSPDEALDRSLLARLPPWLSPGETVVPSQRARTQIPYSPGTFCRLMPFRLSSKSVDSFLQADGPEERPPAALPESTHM
# [8] = Cmax in Sprague-Dawley rat at 28 mg/kg administered via oral gavage measured up to 4 hrs by LC/MS/MS analysis; assay type: ADME, organism-based; parameters: dose 28 mg/kg, route oral; conditions: in vivo
# [9] = AUC in Sprague-Dawley rat at 28 mg/kg administered via oral gavage measured up to 4 hrs by LC/MS/MS analysis; assay type: ADME, organism-based; parameters: time < 4 hr, dose 28 mg/kg, route oral; conditions: in vivo
# [10] = Drug recovery in Sprague-Dawley rat feces at 0.1 mg/kg administered via oral gavage measured after 72 hrs by LC/MS/MS analysis; assay type: ADME, organism-based; conditions: faeces, read-out: Drug recovery
# Rattus norvegicus [11] = test: Decrease in urinary sodium level in Sprague-Dawley rat administered via oral gavage measured after 16 hrs by ion chromatographic analysis; assay type: functional
# Chain of Sodium/hydrogen exchanger 1 (P19634 whole entry): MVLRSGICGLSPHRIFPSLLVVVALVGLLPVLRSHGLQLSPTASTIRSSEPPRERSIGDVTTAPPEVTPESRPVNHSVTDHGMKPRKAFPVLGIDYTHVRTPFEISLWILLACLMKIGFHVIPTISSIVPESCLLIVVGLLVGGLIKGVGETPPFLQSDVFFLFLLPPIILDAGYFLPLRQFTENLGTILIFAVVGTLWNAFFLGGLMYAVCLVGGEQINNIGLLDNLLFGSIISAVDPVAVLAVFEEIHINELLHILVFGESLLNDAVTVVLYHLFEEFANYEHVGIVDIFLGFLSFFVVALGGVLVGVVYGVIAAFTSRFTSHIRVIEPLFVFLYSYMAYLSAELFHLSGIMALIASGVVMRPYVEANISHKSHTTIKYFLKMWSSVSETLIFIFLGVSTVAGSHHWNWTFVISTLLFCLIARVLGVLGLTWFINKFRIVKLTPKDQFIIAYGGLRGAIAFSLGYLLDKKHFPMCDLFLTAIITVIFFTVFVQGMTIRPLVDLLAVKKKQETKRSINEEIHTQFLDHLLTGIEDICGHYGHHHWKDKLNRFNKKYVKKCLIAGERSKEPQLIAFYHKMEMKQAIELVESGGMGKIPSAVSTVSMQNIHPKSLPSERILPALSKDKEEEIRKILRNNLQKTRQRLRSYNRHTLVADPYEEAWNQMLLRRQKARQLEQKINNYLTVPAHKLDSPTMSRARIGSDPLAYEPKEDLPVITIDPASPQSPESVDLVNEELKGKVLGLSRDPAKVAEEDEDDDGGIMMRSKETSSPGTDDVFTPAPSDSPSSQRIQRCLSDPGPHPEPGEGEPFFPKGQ
structure (smiles),measurement,setting,value
CN1Cc2c(Cl)cc(Cl)cc2C(c2ccc(S(=O)(=O)NCCOCCOCCNC(=O)Nc3ccc(NC(=O)NCCOCCOCCNS(=O)(=O)c4ccc(C5CN(C)Cc6c(Cl)cc(Cl)cc65)cc4)cc3)cc2)C1 (centres undefined),Activity,Rattus norvegicus [1],114%
CN1Cc2c(Cl)cc(Cl)cc2C(c2cccc(S(=O)(=O)NCCOCCOCCNC(=O)NCCCCNC(=O)NCCOCCOCCNS(=O)(=O)c3cccc(C4CN(C)Cc5c(Cl)cc(Cl)cc54)c3)c2)C1 (centres undefined),Activity,Rattus norvegicus [1],128%
CN1Cc2c(Cl)cc(Cl)cc2C(c2cccc(NC(=O)N[C@@H](CC(=O)O)C(=O)O)c2)C1 (some centres undefined),Cmax,[2],2.4 ng/mL
same,AUC at 4 h,[3],5 ng·h/mL
Cc1cc(-n2cccc2)c(S(C)(=O)=O)cc1C(=O)NC(=N)N [ENIPORIDE],pIC50,[4],6.42 to 8.30
same,pIC50,[5],4.77 to 5.70
same,pIC50,[6],< 4.52
same,pIC50,[7],3.34 to 4.00
CC(C)c1ccc(C(=O)NC(=N)N)cc1S(C)(=O)=O [CARIPORIDE],pIC50,[4],5.47 to 7.52
same,pIC50,[5],4.21 to 5.37
same,pIC50,[6],< 4.52
same,pIC50,[7],4.00 to 6.00
CN1Cc2c(Cl)cc(Cl)cc2C(c2ccc(S(=O)(=O)NCCOCCOCCNC(=O)C(=O)NCCOCCOCCNS(=O)(=O)c3ccc(C4CN(C)Cc5c(Cl)cc(Cl)cc54)cc3)cc2)C1 (centres undefined),Cmax,[8],8 ng/mL
same,AUC at 4 h,[9],6 ng·h/mL
CC1(C)[C@H](C(=O)N=C(N)N)[C@H]1c1cccc2c1CCO2,pIC50,[5],5.74
same,pIC50,[7],< 4.52
CN1Cc2c(Cl)cc(Cl)cc2C(c2ccc(S(=O)(=O)NCCOCCOCCNC(=O)COCC(=O)NCCOCCOCCNS(=O)(=O)c3ccc(C4CN(C)Cc5c(Cl)cc(Cl)cc54)cc3)cc2)C1 (centres undefined),Activity,Rattus norvegicus [1],118%
C/C(=C\c1cccc(/C=C(\C)C(=O)NC(=N)N)c1)C(=O)N=C(N)N,pIC50,[4],8.70
same,pIC50,[5],7.15
same,pIC50,[7],5.88
"CN1Cc2c(Cl)cc(Cl)cc2[C@H](c2cccc(S(=O)(=O)NCCOCCOCCNC(=O)NCCCCNC(=O)NCCOCCOCCNS(=O)(=O)c3cccc([C@@H]4CN(C)Cc5c(Cl)cc(Cl)cc54)c3)c2)C1.Cl.Cl (single isomer, unassigned) [TENAPANOR HYDROCHLORIDE]",Activity,Rattus norvegicus [1],134%
same,dose excreted at 72 h,[10],90.5 to 93.8%
"CN1Cc2c(Cl)cc(Cl)cc2[C@H](c2cccc(S(=O)(=O)NCCOCCOCCOCCNC(=O)NCCCCNC(=O)NCCOCCOCCOCCNS(=O)(=O)c3cccc([C@@H]4CN(C)Cc5c(Cl)cc(Cl)cc54)c3)c2)C1 (single isomer, unassigned)",Activity,Rattus norvegicus [1],118%
same,Activity,Rattus norvegicus [11],Dose-dependent effect
CN1Cc2c(Cl)cc(Cl)cc2C(c2cccc(S(=O)(=O)NCCOCCOCCNC(=O)c3ccc(C(=O)NCCOCCOCCNS(=O)(=O)c4cccc(C5CN(C)Cc6c(Cl)cc(Cl)cc65)c4)cc3)c2)C1 (centres undefined),Activity,Rattus norvegicus [1],117%
CN1Cc2c(Cl)cc(Cl)cc2C(c2cccc(S(=O)(=O)NCCOCCOCCNC(=O)Nc3ccc(NC(=O)NCCOCCOCCNS(=O)(=O)c4cccc(C5CN(C)Cc6c(Cl)cc(Cl)cc65)c4)cc3)c2)C1 (centres undefined),Activity,Rattus norvegicus [1],120%
CN1Cc2c(Cl)cc(Cl)cc2C(c2ccc(S(=O)(=O)NCCOCCOCCNC(=O)CCC(=O)NCCOCCOCCNS(=O)(=O)c3ccc(C4CN(C)Cc5c(Cl)cc(Cl)cc54)cc3)cc2)C1 (centres undefined),Activity,Rattus norvegicus [1],121%
Cc1ccc(F)cc1[C@@H]1C/C(=N\N=C(N)N)c2c(C)cccc2C1,pIC50,[4],9.00
same,pIC50,[5],6.37
same,pIC50,[7],4.96
"CN1Cc2c(Cl)cc(Cl)cc2[C@H](c2ccc(S(=O)(=O)NCCOCCOCCNC(=O)CCC(=O)NCCOCCOCCNS(=O)(=O)c3ccc([C@@H]4CN(C)Cc5c(Cl)cc(Cl)cc54)cc3)cc2)C1.Cl.Cl (single isomer, unassigned)",Activity,Rattus norvegicus [1],124%
"CN1Cc2c(Cl)cc(Cl)cc2C(c2cccc(S(=O)(=O)NCCOCCOCCOCCNC(=O)C(O)C(O)C(=O)NCCOCCOCCOCCNS(=O)(=O)c3cccc(C4CN(C)Cc5c(Cl)cc(Cl)cc54)c3)c2)C1 (single isomer, unassigned)",Activity,Rattus norvegicus [1],125%
C/C(=C\c1cc(F)c(Oc2ccc(S(=O)(=O)NCCP(=O)(O)O)cc2)c(F)c1)C(=O)N=C(N)N,Cmax,[2],9 ng/mL
same,AUC at 4 h,[3],23 ng·h/mL
CN1Cc2c(Cl)cc(Cl)cc2C(c2cccc(NCCOCCOCCOCCNC(=O)C(O)C(O)C(=O)NCCOCCOCCOCCNc3cccc(C4CN(C)Cc5c(Cl)cc(Cl)cc54)c3)c2)C1 (centres undefined),Cmax,[8],23 ng/mL
same,AUC at 4 h,[9],19 ng·h/mL
CN1Cc2c(Cl)cc(Cl)cc2[C@H](c2ccc(S(=O)(=O)NCCOCCOCCOCCNC(=O)NCCOCCOCCOCCNS(=O)(=O)c3ccc([C@@H]4CN(C)Cc5c(Cl)cc(Cl)cc54)cc3)cc2)C1 (mixture of isomers),Activity,Rattus norvegicus [1],120%
"CN1Cc2c(Cl)cc(Cl)cc2[C@H](c2ccc(S(=O)(=O)NCCOCCOCCNC(=O)COCC(=O)NCCOCCOCCNS(=O)(=O)c3ccc([C@@H]4CN(C)Cc5c(Cl)cc(Cl)cc54)cc3)cc2)C1.Cl.Cl (single isomer, unassigned)",Activity,Rattus norvegicus [1],127%
same,Activity,Rattus norvegicus [11],Dose-dependent effect
"CN1Cc2c(Cl)cc(Cl)cc2[C@H](c2cccc(S(=O)(=O)NCCOCCOCCNC(=O)Nc3ccc(NC(=O)NCCOCCOCCNS(=O)(=O)c4cccc([C@@H]5CN(C)Cc6c(Cl)cc(Cl)cc65)c4)cc3)c2)C1.Cl.Cl (single isomer, unassigned)",Activity,Rattus norvegicus [1],130%
same,dose excreted at 72 h,[10],75.8 to 104%
Cc1ccc(F)cc1[C@H]1C/C(=N\N=C(N)N)c2c(C)cccc2C1,pIC50,[4],4.46
same,pIC50,[5],6.51
same,pIC50,[7],< 4.52
